Tested on: P12-Ichikawa
Assay: cell viability relative to DMSO control; higher = less cytotoxic
Details: 48 h
In short: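 Viability is a per-plate percentage relative to DMSO wells, with cell-free wells as background. CellTiter-Glo One luminescence was read after 48 h at 37°C on 1536-well plates (5 μl) of NOMO1 or SEM (500 cells/well) or P12-Ichikawa (1000 cells/well) leukemia cells. The cells had been adapted for at least four passages in each medium and pin-dosed with library compounds in DMSO from 47 μM to 0.79 nM in 11 threefold steps.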

[1] = HPLM + 10% dialyzed FBS, 0.000781 µM
[2] = HPLM + 10% dialyzed FBS, 0.00234 µM
[3] = HPLM + 10% dialyzed FBS, 0.00702 µM
[4] = HPLM + 10% dialyzed FBS, 0.0211 µM
[5] = HPLM + 10% dialyzed FBS, 0.0632 µM
[6] = HPLM + 10% dialyzed FBS, 0.19 µM
[7] = HPLM + 10% dialyzed FBS, 0.569 µM
[8] = HPLM + 10% dialyzed FBS, 1.71 µM
[9] = HPLM + 10% dialyzed FBS, 5.12 µM
[10] = HPLM + 10% dialyzed FBS, 15.4 µM
[11] = HPLM + 10% dialyzed FBS, 46.1 µM
[12] = RPMI 5 mM glucose + 10% FBS, 0.000781 µM
[13] = RPMI 5 mM glucose + 10% FBS, 0.00234 µM
[14] = RPMI 5 mM glucose + 10% FBS, 0.00702 µM
[15] = RPMI 5 mM glucose + 10% FBS, 0.0211 µM
[16] = RPMI 5 mM glucose + 10% FBS, 0.0632 µM
[17] = RPMI 5 mM glucose + 10% FBS, 0.19 µM
[18] = RPMI 5 mM glucose + 10% FBS, 0.569 µM
[19] = RPMI 5 mM glucose + 10% FBS, 1.71 µM
[20] = RPMI 5 mM glucose + 10% FBS, 5.12 µM
[21] = RPMI 5 mM glucose + 10% FBS, 15.4 µM
[22] = RPMI 5 mM glucose + 10% FBS, 46.1 µM
[23] = RPMI 5 mM glucose + 10% dialyzed FBS, 0.000781 µM
[24] = RPMI 5 mM glucose + 10% dialyzed FBS, 0.00234 µM
[25] = RPMI 5 mM glucose + 10% dialyzed FBS, 0.00702 µM
[26] = RPMI 5 mM glucose + 10% dialyzed FBS, 0.0211 µM
[27] = RPMI 5 mM glucose + 10% dialyzed FBS, 0.0632 µM
[28] = RPMI 5 mM glucose + 10% dialyzed FBS, 0.19 µM
[29] = RPMI 5 mM glucose + 10% dialyzed FBS, 0.569 µM
[30] = RPMI 5 mM glucose + 10% dialyzed FBS, 1.71 µM
[31] = RPMI 5 mM glucose + 10% dialyzed FBS, 5.12 µM
[32] = RPMI 5 mM glucose + 10% dialyzed FBS, 15.4 µM
[33] = RPMI 5 mM glucose + 10% dialyzed FBS, 46.1 µM

Row | SMILES | cell viability [1] [%] | cell viability [2] [%] | cell viability [3] [%] | cell viability [4] [%] | cell viability [5] [%] | cell viability [6] [%] | cell viability [7] [%] | cell viability [8] [%] | cell viability [9] [%] | cell viability [10] [%] | cell viability [11] [%] | cell viability [12] [%] | cell viability [13] [%] | cell viability [14] [%] | cell viability [15] [%] | cell viability [16] [%] | cell viability [17] [%] | cell viability [18] [%] | cell viability [19] [%] | cell viability [20] [%] | cell viability [21] [%] | cell viability [22] [%] | cell viability [23] [%] | cell viability [24] [%] | cell viability [25] [%] | cell viability [26] [%] | cell viability [27] [%] | cell viability [28] [%] | cell viability [29] [%] | cell viability [30] [%] | cell viability [31] [%] | cell viability [32] [%] | cell viability [33] [%]
1 | C/C=C1\C2C=C(C)CC1(N)c1ccc(=O)[nH]c1C2 (stereo not given) | 102 | 108 | 107 | 107 | 109 | 109 | 107 | 104 | 96.3 | 106 | 79.2 | 105 | 110 | 112 | 106 | 113 | 101 | 98.3 | 91.2 | 98.9 | 98.7 | 92.8 | 110 | 98 | 108 | 102 | 94.9 | 107 | 98.4 | 97.1 | 88.5 | 95.2 | 90.9
2 | C[C@@H]\1CC(=O)N\N=C1C2=CC=C(NN=C(C#N)C#N)C=C2 | 91.5 | 92.9 | 94.3 | 94.4 | 95.7 | 92.8 | 93.5 | 87.5 | 91.3 | 86.3 | 29.4 | 88.1 | 93.2 | 92.2 | 89.5 | 93.9 | 92.4 | 96.7 | 91.1 | 93.4 | 81.1 | 15.6 | 81.2 | 85.7 | 88.2 | 92.3 | 92.3 | 90.9 | 91.3 | 80.1 | 83.7 | 72.9 | 12.8
3 | COc1cc2ncnc(Nc3ccc(F)c(Cl)c3)c2cc1NC(=O)/C=C/CN1CCCCC1 | 109 | 108 | 103 | 106 | 107 | 97.6 | 106 | 90.1 | 85.4 | 79.1 | 67.9 | 106 | 106 | 103 | 101 | 102 | 106 | 102 | 92.6 | 85.7 | 82.9 | 75.2 | 101 | 109 | 94.5 | 109 | 105 | 102 | 104 | 88.4 | 80.9 | 76 | 67.8
4 | CC(C)C[C@H](NC(=O)[C@H](CCc1ccccc1)NC(=O)CN1CCOCC1)C(=O)N[C@@H](Cc1ccccc1)C(=O)N[C@@H](CC(C)C)C(=O)[C@@]1(C)CO1 | 86.2 | 96.7 | 95.1 | 86.1 | 5.6 | 5.9 | 5.35 | 4.68 | 1.59 | -0.411 | -0.285 | 83.1 | 96.3 | 92.7 | 46.1 | 4.86 | 4.74 | 4.53 | 4.03 | 2.11 | -0.0452 | -0.307 | 78.8 | 94.4 | 91.2 | 54.1 | 5.27 | 4.96 | 4.93 | 3.8 | 1.93 | -0.204 | -0.46
5 | Cc1ccc([S+](=O)([O-])N[C@@H](Cc2ccccc2)C(=O)CCl)cc1 | 95 | 106 | 101 | 101 | 105 | 107 | 105 | 106 | 104 | 94.4 | 46.4 | 90.8 | 92.4 | 95.7 | 104 | 113 | 107 | 88.7 | 105 | 109 | 96.2 | 36 | 93.9 | 92.6 | 97.2 | 102 | 95.1 | 91.3 | 93.2 | 94.7 | 106 | 105 | 36.9
6 | Nc1ncnc2c1c(-c1cnc3[nH]ccc3c1)nn2C1CCCC1 | 117 | 121 | 112 | 111 | 103 | 106 | 95.7 | 81.3 | 71.2 | 52.2 | 28.7 | 122 | 118 | 122 | 117 | 106 | 96.5 | 90.1 | 63.5 | 53.7 | 40.3 | 26.2 | – | – | – | – | – | – | – | – | – | – | –
7 | CC(C)NC[C@@H](C(=O)N1CCN(c2ncnc3c2[C@H](C)C[C@H]3O)CC1)c1ccc(Cl)cc1 | 118 | 120 | 114 | 109 | 100 | 99.5 | 92.8 | 83 | 67 | 48.2 | 28.1 | 109 | 105 | 111 | 107 | 100 | 85.8 | 71.3 | 65.2 | 52.8 | 44.4 | 33.6 | 112 | 109 | 114 | 115 | 103 | 95.3 | 85.2 | 78.1 | 55.5 | 37.2 | 23.5

Reference: the supplement of paper PMC11451515
